Measured values taken from patent US12157730B2, “Heteroaryl derivative, method for producing same, and pharmaceutical composition comprising same as effective component” (VORONOI INC., priority 2019, dated 2024).

Biological target: T1, Ba/F3 cell EGFR Exon20 ins NPH (Homo sapiens, UniProt P00533, INS773NPH)
T1 construct: expressed in transfected cells; host or cells: Ba/F3
Assay: Ba/F3 cell proliferation suppression, EGFR Exon20 ins NPH
Assay type: cell-based
Details: GI50 class; Ba/F3 cell line with NPH inserted at Exon20 of EGFR; 72 hours
How it was run: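 72 h compound exposure, 0.3 nM–50 um (12 points, 3:1 dilution in DMSO); viability by CellTiter-Glo luminescence. Ba/F3 medium: RPMI-1640, 10% FBS, 5 ng/ml IL-3, 1 ug/ml puromycin for transduced cells. GI50 vs control, n=3.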

| Ba/F3 (NPH) Activity | SMILES |
| --- | --- |
| B (50 nM ≤ GI50 < 500 nM) | C=CC(=O)Nc1cc(Nc2cc(N3OCC[C@@H]3c3cccc(C#N)c3)ncn2)c(OC)cc1N1CCC(O)CC1 [compound 390, N-(5-((6-((R)-3-(3-cyanophenyl)isoxazolidine-2-yl)pyrimidine-4-yl)amino)-2-(4-hydroxypiperidine-1-yl)-4-methoxyphenyl) acrylamide] |
| C (500 nM ≤ GI50 < 5000 nM) | C=C(F)C(=O)Nc1cc(Nc2cc(N3OCC[C@@H]3c3cc(F)cc(F)c3)ncn2)c(OC)cc1N1CCC(N2CCN(C3CC3)CC2)CC1 [Example 120, N-(2-(4-(4-cyclopropylpiperazine-1-yl)piperidine-1-yl)-5-((6-((R)-3-(3,5-difluorophenyl)isoxazolidine-2-yl)pyrimidine-4-yl)amino)-4-methoxyphenyl)-2-fluoroacrylamide] |
| A (GI50 < 50 nM) | C=CC(=O)Nc1cc(Nc2cc(N3OCC[C@@H]3c3cccc(Cl)c3)ncn2)c(OC)cc1N1CCC(N2CCOCC2)CC1 [compound 417, N-(5-((6-((R)-3-(3-chlorophenyl)isoxazolidine-2-yl)pyrimidine-4-yl)amino)-4-methoxy-2-(4-morpholinopiperidine-1-yl)phenyl) acrylamide] |
| A (GI50 < 50 nM) | C=CC(=O)Nc1cc(Nc2cc(N3OCC[C@@H]3c3ccc(F)c(Cl)c3)ncn2)c(OC)cc1N1CCOCC1 [compound 824, N-(5-((6-((R)-3-(3-chloro-4-fluorophenyl)isoxazolidine-2-yl)pyrimidine-4-yl)amino)-4-methoxy-2-morpholinophenyl) acrylamide] |
| C (500 nM ≤ GI50 < 5000 nM) | C=CC(=O)Nc1cc(Nc2cc(N3OCC[C@@H]3c3ccc(C)nc3)ncn2)c(OC)cc1N1C[C@@H]2C[C@H]1CO2 [Example 233, N-(2-((1S,4S)-2-oxa-5-azabicyclo[2.2.1]heptane-5-yl)-4-methoxy-5-((6-((R)-3-(6-methylpyridine-3-yl)isoxazolidine-2-yl)pyrimidine-4-yl)amino)phenyl) acrylamide] |
| A (GI50 < 50 nM) | C=CC(=O)Nc1cc(Nc2cc(N3OCC[C@@H]3c3ccccc3)ncn2)c(OC)cc1N1CCN(CC2CC2)CC1 [Example 277, N-(2-(4-(cyclopropylmethyl)piperazine-1-yl)-4-methoxy-5-((6-((R)-3-phenylisoxazolidine-2-yl)pyrimidine-4-yl)amino)phenyl) acrylamide] |
| A (GI50 < 50 nM) | C=CC(=O)Nc1cc(Nc2cc(N3OCC[C@@H]3c3cc(F)cc(F)c3)ncn2)c(OC)cc1N1CCC(N2C[C@@H]3CCN(C)[C@@H]3C2)CC1 [compound 446, N-(5-((6-((R)-3-(3,5-difluorophenyl)isoxazolidine-2-yl)pyrimidine-4-yl)amino)-4-methoxy-2-(4-((3aS,6aS)-1-methylhexahydropyrrolo [3,4-b]pyrrole-5(1H)-yl)piperidine-1-yl)phenyl)acrylamide] |
| A (GI50 < 50 nM) | C=CC(=O)Nc1cc(Nc2cc(N3OCC[C@@H]3c3ccccc3)ncn2)c(OC)cc1N1CCC(N2C[C@@H](C)O[C@@H](C)C2)CC1 [Example 285, N-(2-(4-((2S,6R)-2,6-dimethylmorpholino)piperidine-1-yl)-4-methoxy-5-((6-((R)-3-phenylisoxazolidine-2-yl)pyrimidine-4-yl)amino)phenyl) acrylamide] |
| B (50 nM ≤ GI50 < 500 nM) | C=CC(=O)Nc1cc(Nc2cc(N3OCC[C@@H]3c3cccc(C#N)c3)ncn2)c(OC)cc1N1CCN(C)CC1 [compound 393, N-(5-((6-((R)-3-(3-cyanophenyl)isoxazolidine-2-yl)pyrimidine-4-yl)amino)-4-methoxy-2-(4-methylpiperazine-1-yl)phenyl)acrylamide] |
| A (GI50 < 50 nM) | C=CC(=O)Nc1cc(Nc2cc(N3OCC[C@@H]3Cc3cccc(F)c3C)ncn2)c(OC)cc1N1CCC(N2CCN(C3CC3)CC2)CC1 [compound 999, N-(2-(4-(4-cyclopropylpiperazine-1-yl)piperidine-1-yl)-5-((6-((S)-3-(3-fluoro-2-methylbenzyl)isoxazolidine-2-yl)pyrimidine-4-yl)amino)-4-methoxyphenyl) acrylamide] |
| A (GI50 < 50 nM) | C=CC(=O)Nc1cc(Nc2cc(N3OCC[C@@H]3Cc3cccc(Cl)c3F)ncn2)c(OC)cc1N(C)CCN(C)C [compound 1016, N-(5-((6-((S)-3-(3-chloro-2-fluorobenzyl)isoxazolidine-2-yl)pyrimidine-4-yl)amino)-2-((2-(dimethylamino)ethyl)(methyl)amino)-4-methoxyphenyl) acrylamide] |
| B (50 nM ≤ GI50 < 500 nM) | C=CC(=O)Nc1cc(Nc2cc(N3OCC[C@@H]3c3ccc4ccccc4c3)ncn2)c(OC)cc1N1CCC(N2CCN(C(C)=O)CC2)CC1 [compound 556, N-(2-(4-(4-acetylpiperazine-1-yl)piperidine-1-yl)-4-methoxy-5-((6-((R)-3-(naphthalene-2-yl)isoxazolidine-2-yl)pyrimidine-4-yl)amino)phenyl) acrylamide] |
| A (GI50 < 50 nM) | C=CC(=O)Nc1cc(Nc2cc(N3OCC[C@@H]3c3cc(F)cc(F)c3)ncn2)c(OC)cc1N1CCN(C)C[C@@H]1C [compound 919, N-(5-((6-((R)-3-(3,5-difluorophenyl)isoxazolidine-2-yl)pyrimidine-4-yl)amino)-2-((S)-2,4-dimethylpiperazine-1-yl)-4-methoxyphenyl) acrylamide] |
| A (GI50 < 50 nM) | C=CC(=O)Nc1cc(Nc2cc(N3OCC[C@@H]3c3cccc(C#N)c3)ncn2)c(OC)cc1N1CCC(N(C)C)CC1 [compound 394, N-(5-((6-((R)-3-(3-cyanophenyl)isoxazolidine-2-yl)pyrimidine-4-yl)amino)-2-(4-(dimethylamino)piperidine-1-yl)-4-methoxyphenyl) acrylamide] |
| A (GI50 < 50 nM) | C=CC(=O)Nc1cc(Nc2cc(N3OCC[C@@H]3c3cccc(Cl)c3F)ncn2)c(OC)cc1N1CCN(C2COC2)CC1 [compound 745, N-(5-((6-((R)-3-(3-chloro-2-fluorophenyl)isoxazolidine-2-yl)pyrimidine-4-yl)amino)-4-methoxy-2-(4-(oxetane-3-yl)piperazine-1-yl)phenyl) acrylamide] |
| A (GI50 < 50 nM) | C=CC(=O)Nc1cc(Nc2cc(N3OCC[C@@H]3c3cccc(C#N)c3)ncn2)c(OC)cc1N1C[C@H]2CCN(C)[C@H]2C1 [compound 331, N-(5-((6-((R)-3-(3-cyanophenyl)isoxazolidine-2-yl)pyrimidine-4-yl)amino)-4-methoxy-2-((3aR, 6aR)-1-methylhexahydropyrrolo [3,4-b]pyrrole-5(1H)-yl)phenyl)acrylamide] |
| A (GI50 < 50 nM) | C=CC(=O)Nc1cc(Nc2cc(N3OCC[C@@H]3c3ccc(Cl)c(Cl)c3)ncn2)c(OC)cc1N(C)CCN(C)C [compound 669, N-(5-((6-((R)-3-(3,4-dichlorophenyl)isoxazolidine-2-yl)pyrimidine-4-yl)amino)-2-((2-(dimethylamino)ethyl)(methyl)amino)-4-methoxyphenyl) acrylamide] |
| A (GI50 < 50 nM) | C=CC(=O)Nc1cc(Nc2cc(N3OCC[C@@H]3c3ccc(F)c(Cl)c3F)ncn2)c(OC)cc1N1CCC(N2CCN(C3CCC3)CC2)CC1 [Example 193, N-(5-((6-((R)-3-(3-chloro-2,4-difluorophenyl)isoxazolidine-2-yl)pyrimidine-4-yl)amino)-2-(4-(4-cyclobutylpiperazine-1-yl)piperidine-1-yl)-4-methoxyphenyl) acrylamide] |
| A (GI50 < 50 nM) | C=CC(=O)Nc1cc(Nc2cc(N3OCC[C@@H]3Cc3cccc(Cl)c3OC)ncn2)c(OC)cc1N1CCN(C2CC2)CC1 [compound 1053, N-(5-((6-((S)-3-(3-chloro-2-methoxybenzyl)isoxazolidine-2-yl)pyrimidine-4-yl)amino)-2-(4-cyclopropylpiperazine-1-yl)-4-methoxyphenyl) acrylamide] |
| A (GI50 < 50 nM) | C=CC(=O)Nc1cc(Nc2cc(N3OCC[C@@H]3c3cccc(Cl)c3Cl)ncn2)c(OC)cc1N1CCC(N2CCN(C3CC3)CC2)CC1 [Example 162, N-(2-(4-(4-cyclopropylpiperazine-1-yl)piperidine-1-yl)-5-((6-((R)-3-(2,3-dichlorophenyl)isoxazolidine-2-yl)pyrimidine-4-yl)amino)-4-methoxyphenyl) acrylamide] |
| A (GI50 < 50 nM) | C=CC(=O)Nc1cc(Nc2cc(N3OCC[C@@H]3c3ccc(F)c(Cl)c3)ncn2)c(OC)cc1N1CCC(N2C[C@@H](C)N(CC)[C@@H](C)C2)CC1 [compound 370, N-(5-((6-((R)-3-(3-chloro-4-fluorophenyl)isoxazolidine-2-yl)pyrimidine-4-yl)amino)-2-(4-((3S,5R)-4-ethyl-3,5-dimethylpiperazine-1-yl)piperidine-1-yl)-4-methoxyphenyl) acrylamide] |
| A (GI50 < 50 nM) | C=CC(=O)Nc1cc(Nc2cc(N3OCC[C@@H]3c3ccc(F)c(Cl)c3F)ncn2)c(OC)cc1N1CCC(N2C[C@@H]3C[C@H]2CO3)CC1 [compound 637, N-(2-(4-((1S,4S)-2-oxa-5-azabicyclo[2.2.1]heptane-5-yl)piperidine-1-yl)-5-((6-((R)-3-(3-chloro-2,4-difluorophenyl)isoxazolidine-2-yl)pyrimidine-4-yl)amino)-4-methoxyphenyl) acrylamide] |
| A (GI50 < 50 nM) | C=CC(=O)Nc1cc(Nc2cc(N3OCC[C@@H]3c3cc(F)ccc3F)ncn2)c(OC)cc1N1CCC(N2CCN(CC)CC2)CC1 [compound 767, N-(5-((6-((R)-3-(2,5-difluorophenyl)isoxazolidine-2-yl)pyrimidine-4-yl)amino)-2-(4-(4-ethylpiperazine-1-yl)piperidine-1-yl)-4-methoxyphenyl) acrylamide] |
